The source of these data is PubChem BioAssay AID1259407 (Chemical Carcinogenesis Research Information System (CCRIS), 2018).

SMILES strings stand for the structures. Activity calls are given as the source filed them. No rule for the calls is given here.

The test system of the data set is CCRIS mutagenicity, Ames/micronucleus/aberration tests. Put plainly: CCRIS mutagenicity studies.
Setting [1] is: Test System: AMES SALMONELLA TYPHIMURIUM, Strain/Indicator: TA98, Metabolic Activation: NONE, Method: PREINCUBATION
Where [2] appears, read: Test System: AMES SALMONELLA TYPHIMURIUM, Strain/Indicator: TA100, Metabolic Activation: NONE, Method: PREINCUBATION

For the compound `CN(Cc1cccc(Br)c1)N=O`, the mutagenic call runs as follows: (Test System: AMES SALMONELLA TYPHIMURIUM, Strain/Indicator: TA1535, Metabolic Activation: HAMSTER, LIVER, S-9, AROCLOR 1254, Method: STANDARD PLATE) “active; positive”; (Test System: AMES SALMONELLA TYPHIMURIUM, Strain/Indicator: TA1535, Metabolic Activation: NONE, Method: STANDARD PLATE) “inactive; negative”.
As for `O[C@@H]1C=Cc2c(cc3ccc4cccc5c6ccccc6c2c3c45)[C@H]1O`, the mutagenic call is “active; positive” (Test System: CHINESE HAMSTER V-79, Strain/Indicator: V-79 (HPRT)/6-THIOGUANINE, Metabolic Activation: HUMAN MAMMARY CARCINOMA MCF-7 CELLS) and “active; positive” (Test System: CHINESE HAMSTER V-79, Strain/Indicator: V-79, Metabolic Activation: RAT, LIVER, S-9, AROCLOR 1254).
`O=S(=O)(O)c1ccc(O)c2ncccc12`: the mutagenic call is, setting by setting: under setting [1], “inactive; negative”; (Test System: AMES SALMONELLA TYPHIMURIUM, Strain/Indicator: TA98, Metabolic Activation: RAT, LIVER, S-9, Method: PREINCUBATION) “active; positive”; under setting [2], “inactive; negative”; (Test System: AMES SALMONELLA TYPHIMURIUM, Strain/Indicator: TA100, Metabolic Activation: RAT, LIVER, S-9, Method: PREINCUBATION) “active; positive”.
As to `COc1cc2c(cc1OC)-c1c3c(cc4c1[C@H](C2)N(C)CC4)OCO3`, the mutagenic call is, setting by setting: (Test System: AMES SALMONELLA TYPHIMURIUM, Strain/Indicator: TA98, Metabolic Activation: RAT, LIVER, S-9, PHENOBARBITAL AND BETA-NAPHTHOFLAVONE, Method: PREINCUBATION) “active; positive”; (Test System: AMES SALMONELLA TYPHIMURIUM, Strain/Indicator: TA100, Metabolic Activation: RAT, LIVER, S-9, PHENOBARBITAL AND BETA-NAPHTHOFLAVONE, Method: PREINCUBATION) “active; positive”.
`O=NN1CSCC1C(=O)O` (configuration not stated): the mutagenic call by setting is: under setting [1], “inactive; negative”; (Test System: AMES SALMONELLA TYPHIMURIUM, Strain/Indicator: TA98, Metabolic Activation: NONE, Method: STANDARD PLATE) “inactive; negative”; (Test System: AMES SALMONELLA TYPHIMURIUM, Strain/Indicator: TA98, Metabolic Activation: RAT, LIVER, S-9, AROCLOR 1254, Method: PREINCUBATION) “inactive; negative”; (Test System: AMES SALMONELLA TYPHIMURIUM, Strain/Indicator: TA98, Metabolic Activation: RAT, LIVER, S-9, AROCLOR 1254, Method: STANDARD PLATE) “inactive; negative”; under setting [2], “inactive; negative”; (Test System: AMES SALMONELLA TYPHIMURIUM, Strain/Indicator: TA100, Metabolic Activation: NONE, Method: STANDARD PLATE) “inactive; negative”. Also, the mutagenic call (Test System: AMES SALMONELLA TYPHIMURIUM, Strain/Indicator: TA100, Metabolic Activation: RAT, LIVER, S-9, AROCLOR 1254, Method: PREINCUBATION) is “inactive; negative” and the mutagenic call (Test System: AMES SALMONELLA TYPHIMURIUM, Strain/Indicator: TA100, Metabolic Activation: RAT, LIVER, S-9, AROCLOR 1254, Method: STANDARD PLATE) is “inactive; negative”.
On to `O=C(O)Cc1ccc(O)c(O)c1`, for which the mutagenic call is, setting by setting: (Test System: AMES SALMONELLA TYPHIMURIUM, Strain/Indicator: TA92, Metabolic Activation: NONE, Method: PREINCUBATION) “inactive; negative”; (Test System: AMES SALMONELLA TYPHIMURIUM, Strain/Indicator: TA97, Metabolic Activation: NONE, Method: PREINCUBATION) “inactive; negative”; under setting [2], “inactive; negative”; (Test System: AMES SALMONELLA TYPHIMURIUM, Strain/Indicator: TA102, Metabolic Activation: NONE, Method: PREINCUBATION) “active; positive”; (Test System: AMES SALMONELLA TYPHIMURIUM, Strain/Indicator: TA104, Metabolic Activation: NONE, Method: PREINCUBATION) “active; positive”; (Test System: AMES SALMONELLA TYPHIMURIUM, Strain/Indicator: TA1535, Metabolic Activation: NONE, Method: PREINCUBATION) “inactive; negative”. For the same compound, the mutagenic call is, setting by setting: (Test System: AMES SALMONELLA TYPHIMURIUM, Strain/Indicator: TA1537, Metabolic Activation: NONE, Method: PREINCUBATION) “inactive; negative”; (Test System: CHINESE HAMSTER V-79, Strain/Indicator: V-79/6-THIOGUANINE, Metabolic Activation: NONE, Method: STANDARD PLATE) “active; positive”.
With `Cc1cccc2cc([N+](=O)[O-])ccc12`, under setting [1], the mutagenic call was “active; positive”.
